Reference: BindingDB's records for patent US20250313563 (The Broad Institute, 2025)
“And” between values parts separate entries of the source, which are not always exact repeats. Equal values may be shown once.

How the values were obtained:
[1] = biological target: Glycogen synthase kinase-3 beta (Homo sapiens, UniProt P49841); test: TR-FRET Assay
Outline: (§1)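 Enzyme and test compound were first incubated together for 30 minutes in assay buffer. The kinase reaction followed and was stopped with EDTA. The pSer641 signal was read by time-resolved FRET.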

[2] = biological target: Glycogen synthase kinase-3 alpha (Homo sapiens, UniProt P49840); test: TR-FRET Assay
Outline: as §1

Glycogen synthase kinase-3 beta, sequence (P49841 whole entry): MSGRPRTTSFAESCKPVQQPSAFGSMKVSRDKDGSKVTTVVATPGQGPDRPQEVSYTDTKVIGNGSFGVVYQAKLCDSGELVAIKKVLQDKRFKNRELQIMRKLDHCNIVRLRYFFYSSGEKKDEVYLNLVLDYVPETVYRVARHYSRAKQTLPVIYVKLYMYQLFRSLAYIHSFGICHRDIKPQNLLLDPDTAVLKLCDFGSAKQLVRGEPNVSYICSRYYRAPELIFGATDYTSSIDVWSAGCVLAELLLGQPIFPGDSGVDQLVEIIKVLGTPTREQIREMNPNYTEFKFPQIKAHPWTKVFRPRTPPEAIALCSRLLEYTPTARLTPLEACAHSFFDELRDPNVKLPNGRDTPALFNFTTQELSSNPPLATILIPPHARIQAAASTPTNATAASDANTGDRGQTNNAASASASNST
Glycogen synthase kinase-3 alpha, sequence (P49840 whole entry): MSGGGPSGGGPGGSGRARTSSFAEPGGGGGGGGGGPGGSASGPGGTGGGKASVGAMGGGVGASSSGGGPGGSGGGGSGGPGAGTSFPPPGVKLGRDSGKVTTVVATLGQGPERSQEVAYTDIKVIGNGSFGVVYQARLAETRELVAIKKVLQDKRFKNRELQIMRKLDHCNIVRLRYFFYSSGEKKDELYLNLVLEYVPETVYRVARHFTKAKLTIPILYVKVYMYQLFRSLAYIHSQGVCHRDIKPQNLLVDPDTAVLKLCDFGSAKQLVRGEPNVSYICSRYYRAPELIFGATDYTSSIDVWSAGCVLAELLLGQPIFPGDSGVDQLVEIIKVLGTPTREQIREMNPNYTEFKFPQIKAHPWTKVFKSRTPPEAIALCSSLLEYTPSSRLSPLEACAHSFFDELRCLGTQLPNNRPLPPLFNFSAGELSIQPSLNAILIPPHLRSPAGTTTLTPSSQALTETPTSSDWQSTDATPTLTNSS

Structure (SMILES) | IC50 [1] | IC50 [2]
CC[C@@]1(c2cccc(-c3ccnc(OC)c3)c2)C2=C(CC(C)(C)CC2=O)NC2N=NC(C)=C21 (stereo partly specified) [US20250313563, Compound 913016] | 1000 to 5000 nM | 100 to 1000 nM
CC[C@@]1(c2cccc(-c3ccncc3F)c2)C2=C(CC(C)(C)CC2=O)NC2N=NC(C)=C21 (stereo partly specified) [US20250313563, Compound 913017] | 100 to 1000 nM | 100 to 1000 nM
CC[C@@]1(c2cccc(-c3ccnc(C)c3)c2)C2=C(CC(C)(C)CC2=O)NC2N=NC(C)=C21 (stereo partly specified) [US20250313563, Compound 913018] | 1000 to 5000 nM | 100 to 1000 nM
CC[C@@]1(c2cccc(-c3ccnc(N(C)C)c3)c2)C2=C(CC(C)(C)CC2=O)NC2N=NC(C)=C21 (stereo partly specified) [US20250313563, Compound 913021] | < 100 nM | < 100 nM
CC[C@@]1(c2cccc(-c3ccncc3C)c2)C2=C(CC(C)(C)CC2=O)NC2N=NC(C)=C21 (stereo partly specified) [US20250313563, Compound 913022] | 1000 to 5000 nM | 100 to 1000 nM
CC[C@@]1(c2cccc(-c3cnn(CCOC)c3)c2)C2=C(CC(C)(C)CC2=O)NC2N=NC(C)=C21 (stereo partly specified) [US20250313563, Compound 913027] | < 100 nM | < 100 nM
CC[C@@]1(c2cccc(-c3cncn3C)c2)C2=C(CC(C)(C)CC2=O)NC2N=NC(C)=C21 (stereo partly specified) [US20250313563, Compound 913032] | < 100 nM | < 100 nM
CC[C@@]1(c2cccc(-c3cnn4c3CCCC4)c2)C2=C(CC(C)(C)CC2=O)NC2N=NC(C)=C21 (stereo partly specified) [US20250313563, Compound 913033] | 1000 to 5000 nM | 100 to 1000 nM
CC[C@]1(c2cccc(-c3cn(C)nc3C)c2)C2=C(CC(C)(C)CC2=O)NC2N=NC(C)=C21 (stereo partly specified) [US20250313563, Compound 913035] | < 100 nM and 100 to 1000 nM | < 100 nM
CC[C@]1(c2cccc(-c3cncn3C)c2)C2=C(CC(C)(C)CC2=O)NC2N=NC(C)=C21 (stereo partly specified) [US20250313563, Compound 913037] | 100 to 1000 nM | < 100 nM
CC[C@]1(c2cccc(-c3c(C)nn(C)c3C)c2)C2=C(CC(C)(C)CC2=O)NC2N=NC(C)=C21 (stereo partly specified) [US20250313563, Compound 913043] | < 100 nM and 100 to 1000 nM | < 100 nM
CC[C@@]1(c2cccc(-c3ccncc3C)c2)C2=CN=NC2NC2=C1C(=O)CC(C)(C)C2 (stereo partly specified) [US20250313563, Compound 913047] | < 100 nM and 100 to 1000 nM | < 100 nM
CC[C@]1(c2cccc(-c3ccnc(N(C)C)c3)c2)C2=C(CC(C)(C)CC2=O)NC2N=NC(C)=C21 (stereo partly specified) [US20250313563, Compound 913048] | 1000 to 5000 nM | 100 to 1000 nM
CC[C@]1(c2cccc(-c3cc(C)ncc3C)c2)C2=C(CC(C)(C)CC2=O)NC2N=NC(C)=C21 (stereo partly specified) [US20250313563, Compound 913050] | < 100 nM and 100 to 1000 nM | < 100 nM
CC[C@]1(c2cccc(-c3ccncc3)c2)C2=C(CC(C)(C)CC2=O)NC2N=NC(C)=C21 (stereo partly specified) [US20250313563, Compound 913054] | 1000 to 5000 nM | 100 to 1000 nM
CC1(C)CC(=O)C2=C(C1)NC1=C(CN=N1)C21CCC2(CCC(=O)N2)CC1 (stereo unspecified) [US20250313563, Compound 913056] | 1000 to 5000 nM | 100 to 1000 nM
CC1(C)CC(=O)C2=C(C1)NC1=C(CN=N1)[C@@]21COC2(CN(S(C)(=O)=O)C2)C1 [US20250313563, Compound 913057] | < 100 nM | < 100 nM
CC(=O)N1CC2(C1)CC1(CO2)C2=C(N=NC2)NC2=C1C(=O)CC(C)(C)C2 (stereo unspecified) [US20250313563, Compound 913058] | < 100 nM and 100 to 1000 nM | < 100 nM
CCC1(c2cccc(N(C)c3cccc(OC)n3)c2)C2=CN=NC2NC2=C1C(=O)CC(C)(C)C2 (stereo unspecified) [US20250313563, Compound 913121] | 100 to 1000 nM | < 100 nM
CCC1(c2cccc(N(C)c3cccc(C(F)(F)F)n3)c2)C2=CN=NC2NC2=C1C(=O)CC(C)(C)C2 (stereo unspecified) [US20250313563, Compound 913122] | 100 to 1000 nM | 100 to 1000 nM
CCC1(c2cccc(S(=O)(=O)c3ccccc3)c2)C2=CN=NC2NC2=C1C(=O)CC(C)(C)C2 (stereo unspecified) [US20250313563, Compound 913123] | < 100 nM and 100 to 1000 nM | < 100 nM
CCC1(c2cccc(N(C)C(=O)CN3CCCC3)c2)C2=CN=NC2NC2=C1C(=O)CC(C)(C)C2 (stereo unspecified) [US20250313563, Compound 913125] | 100 to 1000 nM | < 100 nM
CC1(C)CC(=O)C2=C(C1)NC1=C(CN=N1)C21CCN(S(=O)(=O)C2CCOCC2)CC1 [US20250313563, Compound 913127] | < 100 nM and 100 to 1000 nM | < 100 nM
CC1(C)CC(=O)C2=C(C1)NC1=C(CN=N1)C21CCN(S(=O)(=O)C2CCCCC2)CC1 [US20250313563, Compound 913128] | < 100 nM and 100 to 1000 nM | < 100 nM
CC1(C)CC(=O)C2=C(C1)NC1=C(CN=N1)[C@]21C[C@@]2(CCN(CC(F)(F)F)C2)C1 [US20250313563, Compound 913138] | 100 to 1000 nM | 100 to 1000 nM
CC[C@]1(c2cccc(N3CCC3(C)C)c2)C2=CN=NC2NC2=C1C(=O)CC(C)(C)C2 (stereo partly specified) [US20250313563, Compound 913140] | 100 to 1000 nM | < 100 nM
CC[C@@]1(c2cccc(N3CCC3(C)C)c2)C2=CN=NC2NC2=C1C(=O)CC(C)(C)C2 (stereo partly specified) [US20250313563, Compound 913141] | 1000 to 5000 nM | 100 to 1000 nM
CC1(C)CC(=O)C2=C(C1)NC1=C(CN=N1)[C@]21CO[C@H](C2CC2)C1 [US20250313563, Compound 913184] | 1000 to 5000 nM | 100 to 1000 nM
CC[C@@H]1C[C@@]2(CO1)C1=C(N=NC1)NC1=C2C(=O)CC(C)(C)C1 [US20250313563, Compound 913215] | 1000 to 5000 nM | 100 to 1000 nM
CC[C@H]1C[C@@]2(CO1)C1=C(N=NC1)NC1=C2C(=O)CC(C)(C)C1 [US20250313563, Compound 913216] | 100 to 1000 nM | 100 to 1000 nM

Next, values leading:

IC50 [1] | IC50 [2] | Structure (SMILES)
1000 to 5000 nM | 100 to 1000 nM | CC[C@@]1(c2cccc(-c3cc(C)ncc3C)c2)C2=C(CC(C)(C)CC2=O)NC2N=NC(C)=C21 (stereo partly specified) [US20250313563, Compound 913019]
1000 to 5000 nM | 100 to 1000 nM | CC[C@@]1(c2cccc(-c3cnn(C)c3C)c2)C2=C(CC(C)(C)CC2=O)NC2N=NC(C)=C21 (stereo partly specified) [US20250313563, Compound 913024]
100 to 1000 nM | 100 to 1000 nM | CC[C@@]1(c2cccc(-c3c(C)nn(C)c3C)c2)C2=C(CC(C)(C)CC2=O)NC2N=NC(C)=C21 (stereo partly specified) [US20250313563, Compound 913026]
< 100 nM | < 100 nM | CC[C@@]1(c2cccc(-c3cn(C)nc3C(C)C)c2)C2=C(CC(C)(C)CC2=O)NC2N=NC(C)=C21 (stereo partly specified) [US20250313563, Compound 913029]
< 100 nM and 100 to 1000 nM | < 100 nM and 100 to 1000 nM | CC[C@@]1(c2cccc(-c3ccn(C)n3)c2)C2=C(CC(C)(C)CC2=O)NC2N=NC(C)=C21 (stereo partly specified) [US20250313563, Compound 913030]
1000 to 5000 nM | 100 to 1000 nM | CC[C@]1(c2cccc(-c3cnn(C)c3)c2)C2=C(CC(C)(C)CC2=O)NC2N=NC(C)=C21 (stereo partly specified) [US20250313563, Compound 913038]
1000 to 5000 nM | 100 to 1000 nM | CC[C@]1(c2cccc(-c3cn(C)nc3C(C)C)c2)C2=C(CC(C)(C)CC2=O)NC2N=NC(C)=C21 (stereo partly specified) [US20250313563, Compound 913040]
> 5000 nM | 1000 to 5000 nM | CC[C@@]1(c2cccc(-c3cnn(C4CC4)c3)c2)C2=CN=NC2NC2=C1C(=O)CC(C)(C)C2 (stereo partly specified) [US20250313563, Compound 913041]
> 5000 nM | > 5000 nM | CC[C@]1(c2cccc(-c3cnn(CCOC)c3)c2)C2=C(CC(C)(C)CC2=O)NC2N=NC(C)=C21 (stereo partly specified) [US20250313563, Compound 913042]
100 to 1000 nM | 100 to 1000 nM | CC[C@]1(c2cccc(C3=CN=NC3)c2)C2=C(CC(C)(C)CC2=O)NC2N=NC(C)=C21 (stereo partly specified) [US20250313563, Compound 913044]
> 5000 nM | 1000 to 5000 nM and > 5000 nM | CC[C@]1(c2cccc(-c3ccnn3C)c2)C2=C(CC(C)(C)CC2=O)NC2N=NC(C)=C21 (stereo partly specified) [US20250313563, Compound 913046]
100 to 1000 nM | 100 to 1000 nM | CCC1(c2cc(N(C)C(C)=O)ccc2F)C2=CN=NC2NC2=C1C(=O)CC(C)(C)C2 (stereo unspecified) [US20250313563, Compound 913124]
100 to 1000 nM | < 100 nM | CC1(C)CC(=O)C2=C(C1)NC1=C(CN=N1)C21CCCSCC1 (stereo unspecified) [US20250313563, Compound 913126]
< 100 nM and 100 to 1000 nM | < 100 nM | CC(C)S(=O)(=O)N1CCC2(CC1)C1=C(N=NC1)NC1=C2C(=O)CC(C)(C)C1 [US20250313563, Compound 913129]
1000 to 5000 nM | 100 to 1000 nM | CC[C@]1(c2cccc(S(=O)(=O)C(C)C)c2)C2=CN=NC2NC2=C1C(=O)CC(C)(C)C2 (stereo partly specified) [US20250313563, Compound 913134]
100 to 1000 nM | < 100 nM | Cc1cccc2c1CC[C@@]21C2=C(N=NC2)NC2=C1C(=O)CC(C)(C)C2 [US20250313563, Compound 913136]
> 5000 nM | > 5000 nM | Cc1cccc2c1CC[C@]21C2=C(N=NC2)NC2=C1C(=O)CC(C)(C)C2 [US20250313563, Compound 913137]
100 to 1000 nM | 100 to 1000 nM | CC1(C)CC(=O)C2=C(C1)NC1=C(CN=N1)[C@]21C[C@@]2(CCN(CC(F)F)C2)C1 [US20250313563, Compound 913139]
> 5000 nM | 100 to 1000 nM | CCC1(c2cccc(C(F)(F)F)c2)C2=C(N=NC2)NC2=C1C(=O)NC2 (stereo unspecified) [US20250313563, Compound 913156]
1000 to 5000 nM | 100 to 1000 nM | CCC1(c2cccc(C(C)(C)F)c2)C2=CN=NC2NC2=C1C(=O)N(C)CC2 (stereo unspecified) [US20250313563, Compound 913178]
100 to 1000 nM | < 100 nM | CCC1(c2cccc(C(F)(F)F)c2)C2=C(N=NC2)NC2=C1C(=O)N(C)C2(C)C (stereo unspecified) [US20250313563, Compound 913198]
1000 to 5000 nM | 100 to 1000 nM | CC[C@@H]1C[C@]2(CO1)C1=C(N=NC1)NC1=C2C(=O)CC(C)(C)C1 [US20250313563, Compound 913213]
1000 to 5000 nM | 100 to 1000 nM | CC[C@H]1C[C@]2(CO1)C1=C(N=NC1)NC1=C2C(=O)CC(C)(C)C1 [US20250313563, Compound 913214]
